From patent US6544957B2, “Methods and reagents for facilitating transcription” (The Johns Hopkins University, priority 2000, dated 2003)
Where “and” joins values, the source holds several entries; their conditions need not be identical. Equal entries are not always repeated.

What was measured:
[1] = Richon et al., 1996; cited from earlier work
[2] = system: histone deacetylase (HDAC) in PANC-1 cells; assay: Immunoblotting assay of histone acetylation; assay type: cell-based
Method: PANC-1 cells were untreated or treated with scriptaid (2 μg/ml) or TSA (0.1 or 0.32 μg/ml). Acetylated histones were detected by anti-human acetyl-lysine antibody immunoblot. Immunoblotting Assay of Histone Acetylation. PANC-1 cells were treated with 2 μg/ml of scriptaid (ChemBridge), 0.1 μg/ml, or 0.32 μg/ml of trichostatin A (Sigma, St. Louis, Mo.) for 18 hours in culture media. Treated and untreated cells were harvested with trypsin-EDTA (Life Technologies, Inc.), washed with phosphate-buffered saline (Life Technologies, Inc.), and resuspended in a protein sample buffer. Protein concentration was determined by BCA protein assay reagents (Pierce, Rockford, Ill.). Fifty micrograms of proteins from each sample was loaded on a 12% denaturing polyacrylamide gel. Proteins were subsequently transferred to a nylon membrane (Imobilon P, Millipore, Burlington, Mass.) using Milliblot-Graphite Electroblotter I (Millipore). The nylon membrane was incubated with rabbit anti-human acetyl-lysine antibody (#06-933, Upstate Biotechnology, Waltham, Mass.) at 1:1000 dilution, followed by goat anti-rabbit antibody coupled to horseradish peroxidase (Pierce) at 1:2000 dilution, developed with SuperSignal substrates (Pierce), and detected by film (BioMax, Kodak, Rochester, N.Y.).

[3] = system: PANC-1 and MDA-MB-468 cells; assay: Survival curve, trypan-blue exclusion; assay type: cell-based; details: 18-hour incubation; for cytotoxicity (in words): at optimal concentration for transcriptional facilitation
Method: FIGS. 5A to 5B. Effects of compounds on cell survival. […] Data represent averages of two to four experiments and SEM. FIG. 5A, scriptaid. FIG. 5B, TSA.
Survival Curve. Equal numbers of cells were plated in six-well plates in the absence or presence of scriptaid or TSA at different concentrations. After 18 hours of incubation, cell numbers were determined by trypan-blue exclusion. Percent survival of the treated cells was calculated in comparison to the untreated sample, which was considered to represent 100%.

[4] = system: p6SBE-luc, p6MBE-luc, pCMVβ, pUB6/V5-lacZ reporters in PANC-1 or MDA-MB-468 cells; assay: Transient transfection reporter assay (luciferase, β-gal); assay type: cell-based; details: 18 hours; for facilitation of reporter expression after transient transfection (in words): SV40, CMV and ubiquitin c promoters, PANC-1 or MDA-MB-468
Method: FIGS. 7A-7C. Scriptaid and TSA transcriptional facilitation after transient transfection. PANC-1 or MDA-MB-468 cells were transiently transfected for 4 hours with constructs containing various promoters. Transfected cells were untreated or treated with scriptaid or TSA for 18 hours. Data represent averages of two to five experiments and SEM. FIG. 7A, SV40 promoter and luciferase reporter gene. FIG. 7B, CMV promoter and β-gal reporter gene. FIG. 7C, human ubiquitin c promoter and β-gal reporter gene.
Transfection Assay. Each transient transfection experiment was done in duplicate in six-well plates. LipofectAMINE (Life Technologies, Inc.) was used as directed by the manufacturer. The DNA-LipofectAMINE mixture was removed from cells after 4-5 hours of transfection, and culture media with or without compounds or TGFβ was then added to the cells. Sixteen to eighteen hours from the start of the transfection, cell lysates were prepared with Reporter Lysis Buffer (Promega) for luciferase and β-gal assays. Luciferase was measured using The Luciferase Assay System (Promega) and β-gal assay was performed as previously described (Dai et al., 1998). Studies of the SV40 promoter included all experiments done with p6SBE-luc, p6MBE-luc, and pGL3-control (Promega) plasmids. Studies of the CMV promoter were done using pCMVβ. (Clonetech, Palo Alto, Calif.), and those of human ubiquitin c promoter were done using pUB6/V5-lacZ (Invitrogen).

[5] = system: PANC-1 cells containing the stably integrated p6SBE-luc; assay: TGFβ/Smad4 signal transduction assay with stably integrated p6SBE-luc (FIGS. 6B, 6C); assay type: cell-based; details: absence or presence of TGFβ 1 ng/ml
Method: FIGS. 6A-6C. Proportional effects of scriptaid and TSA on the TGFβ/Smad4 signal transduction assay. FIG. 6A, p6SBE-luc or p6MBE-luc was cotransfected with pCMV-β into PANC-1 cells. Transfected cells were untreated or treated with TGFβor/and scriptaid for 18 hours. […] Relative luciferase induction was determined after normalization to the TGFβ-non-inducible pCMV-β control, itself subject to scriptaid facilitation (see FIG. 7). Data represent averages of two experiments and SEM. FIG. 6B, total luciferase induction in PANC-1 cells containing the stably integrated p6SBE-luc after treatment with scriptaid or TSA in the absence or presence of TGFβ (1 ng/ml). FIG. 6C, relative luciferase induction in PANC-1 cells containing the stably integrated p6SBE-luc after treatment with scriptaid or TSA in the absence or presence of TGFβ (1 ng/ml ) determined after normalization to the values observed with the HDAC inhibitor alone.
Cell Lines. PANC-1 and MDA-MB-468 cell lines were purchased from ATCC (Manassas, Va.). Stable transfectants were generated by co-transfection of pcDNA3.1 (Invitrogen, Carlsbad, Calif.) and p6SBE-luc into PANC-1 cells with LipofectAMINE (Life Technologies, Inc.). Transfected cells were diluted and selected in multiple 96-well plates in the presence of 0.5 mg/ml of G418 (Life Technologies, Inc.). […]

[6] = system: p6SBE-luc reporter construct in PANC-1 cells; assay: Compound screening, luciferase activity in PANC-1 cells with stably integrated p6SBE-luc; assay type: cell-based; details: 2 μg/ml compound, 16-18 hours, initial library screen
Method: (§1) Cell Lines. PANC-1 and MDA-MB-468 cell lines were purchased from ATCC (Manassas, Va.). Stable transfectants were generated by co-transfection of pcDNA3.1 (Invitrogen, Carlsbad, Calif.) and p6SBE-luc into PANC-1 cells with LipofectAMINE (Life Technologies, Inc.). Transfected cells were diluted and selected in multiple 96-well plates in the presence of 0.5 mg/ml of G418 (Life Technologies, Inc.). Single clones were expanded and tested for basal luciferase expression and TGFβ inducibility. One clone was chosen on basis of high (6 to 8-fold) induction of luciferase by 0.5 ng/ml TGFβ (R&D Systems, Minneapolis, Minn.).
Compound Screening. Each compound of the library (DIVERSet, ChemBridge, San Diego, Calif.) was dissolved and diluted in DMSO at 1 mg/ml. Cells were plated in 96-well cluster plates (Corning, Cambridge, Mass.) and incubated with each compound, after further dilution in culture media to the final concentration of 2 μg/ml, for 16-18 hours. Luciferase activity was measured upon addition of Steady-Glo substrate (Promega). Up to sixteen 96-well plates could be assembled in a Wallac Trilux photodetector (Wallac, Gaithersburg, Md.) for measurement. All readouts from each experiment were compared to the control wells, and a number reflecting the relative increase in luciferase activity was calculated for each chemical using Excel (Microsoft, Redmond, Wash.) spreadsheets. […]

[7] = system: PANC-1 cells having stably integrated p6SBE-luc; assay: Dose response of transcriptional facilitation in stably transfected cell line (FIG. 3); assay type: cell-based; details: for transcriptional facilitation (in words): at concentrations corresponding to scriptaid; for optimal concentration for transcriptional facilitation: PANC-1 stably integrated p6SBE-luc, luciferase
Method: FIG. 3. Dose responses of TSA and scriptaid transcriptional facilitation in a stably transfected cell line. Luciferase activity was determined using PANC-1 cells having stably integrated p6SBE-luc at the indicated concentration of compounds. Data represent averages of two to three experiments and SEM.
as §1
Compound Screening. Each compound of the library (DIVERSet, ChemBridge, San Diego, Calif.) was dissolved and diluted in DMSO at 1 mg/ml. Cells were plated in 96-well cluster plates (Corning, Cambridge, Mass.) and incubated with each compound, after further dilution in culture media to the final concentration of 2 μg/ml, for 16-18 hours. Luciferase activity was measured upon addition of Steady-Glo substrate (Promega). Up to sixteen 96-well plates could be assembled in a Wallac Trilux photodetector (Wallac, Gaithersburg, Md.) for measurement. All readouts from each experiment were compared to the control wells, and a number reflecting the relative increase in luciferase activity was calculated for each chemical using Excel (Microsoft, Redmond, Wash.) spreadsheets.
The entire library, consisting of 16,320 compounds, was screened. Eleven compounds were associated with a two to five-fold induction of luciferase activity, and one with a twelve-fold activation (FIG. 1). Further studies on the latter compound (ID#217444, 6-(1,3-Dioxo-1H,3H-benzo[de]isoquinolin-2-yl)-hexanoic acid hydroxyamide, we termed scriptaid) are reported here (FIG. 2). […] The results were validated by repeated determinations in the screening assay and subsequently by a dose-response curve performed on PANC-1 cells containing stably integrated p6SBE-luc (FIG. 3).

Row | SMILES | optimal concentration reported [1] [µM] | cytotoxicity (in words) [3] | facilitation of reporter expression after transient transfection (in words) [4] | effect on TGFβ-stimulated induction of integrated p6SBE-luc (in words) [5] | induction of luciferase activity relative to control wells [6] | further results
1 | O=C(/C=C/c1cccc(C(=O)NO)c1)NO [CBHA] | 4 |  |  |  |  | 
2 | CC(=O)NCCCCCCNC(C)=O [HMBA] | 5000 |  |  |  |  | 
3 | O=C(CCCCCCC(=O)Nc1ccccc1)NO [SAHA] | 2 |  |  |  |  | 
4 | CC(/C=C/C(=O)NO)=C\[C@@H](C)C(=O)c1ccc(N(C)C)cc1 [TSA, trichostatin A] |  | cytotoxic for two cell lines | less predictable at its optimal concentration | proportionally enhance the induction of an integrated p6SBE-luc construct without interfering with TGFβ-stimulated transcriptional responses |  | inhibition of endogenous histone deacetylation (in words) ([2]; TSA 0.1 μg/ml, compared with scriptaid 2 μg/ml and TSA 0.32 μg/ml): less efficient; survival ([3]; minimal toxic concentration 0.1 μg/ml): 85-90%
5 | O=C(CCCN1C(=O)c2cccc3cccc(c23)C1=O)NO [nullscript, 4-(1,3-Dioxo-1H,3H-benzo[de]isoquinolin-2-yl)-N-hydroxy-butyramide] |  |  |  |  | did not induce | transcriptional facilitation (in words) [7]: inactive; transcriptional facilitation (in words) ([7]; listed as Nullscipt): does not facilitate transcription
6 | O=C(CCCCCN1C(=O)c2cccc3cccc(c23)C1=O)NO [scriptaid, 6-(1,3-Dioxo-1H,3H-benzo[de]isoquinolin-2-yl)-hexanoic acid hydroxyamide] |  | not lethal to one cell line | capable of inducing high expression | proportionally enhance the induction of an integrated p6SBE-luc construct without interfering with TGFβ-stimulated transcriptional responses | twelve-fold | increase in histone acetylation ([2]; cultured cells, scriptaid 2 μg/ml, 18 hours, anti-acetyl-lysine immunoblot): greater than 100 fold; optimal concentration for transcriptional facilitation [7]: 6 to 8 µM; optimal concentration for transcriptional facilitation ([7]; listed as Scriptaid): 2-2.5 μg/ml and 6-8 μM; survival ([3]; at its optimal concentration for transcriptional facilitation, cell line not named): 80%; increase of transcription of all three reporters (p6SBE-luc, p6MBE-luc, pCMVβ) ([4]; transient cotransfection in PANC-1 cells): twelve-fold
